One data set concerns the target T1, CYP2C19 (Homo sapiens, UniProt P33261).
T1 construct: phosphate buffer (100 mM, pH 7.4) containing human liver microsomes (HLM); from tissue; host or cells: human liver microsomes
Briefly: Reversible P450 inhibition in HLM. Format: biochemical. Conditions: substrate Mephenytoin. As for the experimental part:
(§1) The reversible P450 inhibition assay was conducted in triplicate on a BioCel 1200 System, V11 (Agilent, CA), as previously described by Kosaka, et al.[28] […] Individual P450 specific substrates included midazolam for CYP3A4/5, dextromethorphan for CYP2D6, S-(+)-mephenytoin for CYP2C19, S-(-)-warfarin for CYP2C9, paclitaxel for CYP2C8, and tacrine for CYP1A2. P450 activity was expressed as the peak area ratio of a P450-specific metabolite formed relative to its internal standard, and inhibition percentage was calculated from P450 activity of samples relative to the solvent control. Inhibition data were processed using Prism (GraphPad Software, San Diego, CA) to calculate IC50 values for each P450 enzyme.

Another data set has as its target T2, CYP2D6 (Homo sapiens, UniProt P10635).
T2 construct: phosphate buffer (100 mM, pH 7.4) containing human liver microsomes (HLM); from tissue; host or cells: human liver microsomes
Briefly: Reversible P450 inhibition in HLM. Format: biochemical. Conditions: human liver microsomes, pH 7.4, probe dextromethorphan, substrate Dextromethorphan. As for the experimental part:
as §1

Another data set deals with T3, CYP1A2 (Homo sapiens, UniProt P05177).
T3 construct: phosphate buffer (100 mM, pH 7.4) containing human liver microsomes (HLM); from tissue; host or cells: human liver microsomes
T3 sequence (P05177 1-516): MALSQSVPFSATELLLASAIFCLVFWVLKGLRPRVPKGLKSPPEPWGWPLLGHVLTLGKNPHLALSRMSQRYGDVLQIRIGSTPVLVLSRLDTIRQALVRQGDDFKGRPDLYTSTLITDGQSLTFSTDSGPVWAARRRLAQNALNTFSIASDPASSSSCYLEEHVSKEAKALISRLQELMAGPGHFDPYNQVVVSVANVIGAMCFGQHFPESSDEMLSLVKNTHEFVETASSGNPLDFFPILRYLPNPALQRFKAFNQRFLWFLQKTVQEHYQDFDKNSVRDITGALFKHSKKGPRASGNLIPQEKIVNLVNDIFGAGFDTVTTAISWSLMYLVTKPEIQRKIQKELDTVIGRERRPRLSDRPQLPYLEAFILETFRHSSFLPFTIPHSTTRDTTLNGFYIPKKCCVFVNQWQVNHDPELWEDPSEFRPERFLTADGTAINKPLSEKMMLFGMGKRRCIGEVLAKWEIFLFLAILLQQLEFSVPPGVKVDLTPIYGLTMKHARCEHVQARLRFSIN
The data set is described as follows: Reversible P450 inhibition in HLM. Format: biochemical. Conditions: human liver microsomes, pH 7.4, probe tacrine, substrate Tacrine. As for the experimental part: as §1

Data set [1] is described as follows: Body weight in mouse efficacy study. Format: in vivo. The settings on record: in g (unit assumed). As for the experimental part: Female C.B-17 SCID (Inbred) mice that weighed 16–20 g were inoculated with 10 million HCC2302 lung adenocarcinoma cells (suspended in a mixture of Hank’s Balanced Salt Solution containing Matrigel at a 1:1 ratio) in the right flank subcutaneously. Tumors were monitored until they reached a mean tumor volume of 110–167 mm^3. The mean tumor volume across all three groups was 141 ± 16.64 mm^3 (mean ± SD) at the initiation of dosing (Study WF-31, n = 10). […] Tumor volumes were measured in two dimensions (length and width) using Ultra Cal-IV calipers. The tumor volume was calculated with the following formula: Tumor size (mm^3) = (longer measurement × shorter measurement^2)/2. Animal body weights were measured using an Adventura scale. Percent weight change was calculated using the following formula: Group percent weight change = (new weight − initial weight)/ initial weight) × 100%.
In a separate study, tumors were monitored until they reached a mean tumor volume of 121–159 mm^3. The mean tumor volume across all three groups was 138 ± 10.26 mm^3 (mean ± SD) at the initiation of dosing (Study WF-34, n = 10).

Data set [2] can be described thus: In vitro metabolism in human hepatocytes. Conditions: incubations with hepatocytes and microsomes of rats and humans.
Experimental: Hepatocyte cell count was ~1.1–1.8 × 10^6 cells/mL. After 3 h, samples were quenched with 3 volumes of acetonitrile, vortex mixed, and centrifuged. The supernatant (5 µL) was analyzed by LC-MS using a Kinetex EVO C18 column (1.7 μm, 2.1 × 150 mm) at 40 °C with a flow rate of 0.4 mL/min. Mobile phase A was 20 mM ammonium acetate in water, and mobile phase B was acetonitrile. The column was initially held at 5% B for 2 min, increased to 75% B over 33 minutes, and then increased to 95% B over 3 min, where it was maintained for 3 minutes before returning to 5% B over 0.5 min for re-equilibration. Mass spectrometry data was acquired using positive ion mode and data-dependent MS^2 acquisition.
Another data set deals with CYP3A4/5. Briefly: Reversible P450 inhibition in HLM. Format: biochemical. Conditions: human, human liver microsomes. As for the experimental part: The reversible P450 inhibition assay was conducted in triplicate on a BioCel 1200 System, V11 (Agilent, CA), as previously described by Kosaka, et al.[28] […] […] P450 activity was expressed as the peak area ratio of a P450-specific metabolite formed relative to its internal standard, and inhibition percentage was calculated from P450 activity of samples relative to the solvent control. Inhibition data were processed using Prism (GraphPad Software, San Diego, CA) to calculate IC50 values for each P450 enzyme.

The subject of data set [3] is primary human hepatocytes. Briefly: Oil-spin hepatocyte uptake assay. Format: in vitro ADME. As for the experimental part: Uptake studies were conducted using the oil-spin method described previously. Cryopreserved primary human hepatocytes (Lot KCN, BioIVT, Hicksville, NY) were thawed at 37 °C and re-suspended in InVitroGro-HT medium (BioIVT, Hicksville, NY). The suspension was centrifuged at 50 × g for 5 minutes at 4 °C, and the resulting pellet was re-suspended to 2 million cells/mL in ice-cold KHB buffer with 10% human serum (BioIVT, Hicksville, NY). The cell suspension was equilibrated to 37 °C in a water bath for 10 minutes with or without inhibitors. At the start of the uptake experiment, 37 °C KHB buffer containing test compounds with or without inhibitors was added to the hepatocyte suspension. At various time points, the uptake was terminated by removing portions of the suspension to microcentrifuge tubes containing a lower […] ammonium acetate layer and an upper mineral/silicone oil layer. For the 4 °C experiment, ice-cold buffer containing test compounds with or without inhibitors was added to ice-cold hepatocyte suspension, and the mixture was incubated on ice for the duration of the experiment. The microcentrifuge tubes were immediately centrifuged at 16,000 × g for 12 seconds. The tubes were then frozen on dry ice. The frozen hepatocyte pellets were cut from the tubes and transferred to −80 °C freezer until LC-MS/MS analysis. […]

Where “and” joins values, the source holds several entries; their conditions need not be identical. Equal entries are not always repeated.

T1 sequence (P33261 whole entry): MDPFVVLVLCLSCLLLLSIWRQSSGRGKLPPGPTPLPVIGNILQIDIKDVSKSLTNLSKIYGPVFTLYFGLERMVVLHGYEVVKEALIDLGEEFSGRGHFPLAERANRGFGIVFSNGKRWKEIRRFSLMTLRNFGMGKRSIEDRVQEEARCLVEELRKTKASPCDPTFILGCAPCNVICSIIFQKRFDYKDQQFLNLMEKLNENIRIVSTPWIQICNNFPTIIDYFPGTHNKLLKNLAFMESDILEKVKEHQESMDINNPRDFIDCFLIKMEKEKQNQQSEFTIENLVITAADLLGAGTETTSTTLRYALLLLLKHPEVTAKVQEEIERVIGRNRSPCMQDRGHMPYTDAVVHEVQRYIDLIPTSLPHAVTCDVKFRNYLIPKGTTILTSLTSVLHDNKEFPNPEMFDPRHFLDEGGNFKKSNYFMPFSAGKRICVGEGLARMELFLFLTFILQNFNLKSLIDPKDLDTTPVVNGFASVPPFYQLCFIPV
T2 sequence (P10635 whole entry): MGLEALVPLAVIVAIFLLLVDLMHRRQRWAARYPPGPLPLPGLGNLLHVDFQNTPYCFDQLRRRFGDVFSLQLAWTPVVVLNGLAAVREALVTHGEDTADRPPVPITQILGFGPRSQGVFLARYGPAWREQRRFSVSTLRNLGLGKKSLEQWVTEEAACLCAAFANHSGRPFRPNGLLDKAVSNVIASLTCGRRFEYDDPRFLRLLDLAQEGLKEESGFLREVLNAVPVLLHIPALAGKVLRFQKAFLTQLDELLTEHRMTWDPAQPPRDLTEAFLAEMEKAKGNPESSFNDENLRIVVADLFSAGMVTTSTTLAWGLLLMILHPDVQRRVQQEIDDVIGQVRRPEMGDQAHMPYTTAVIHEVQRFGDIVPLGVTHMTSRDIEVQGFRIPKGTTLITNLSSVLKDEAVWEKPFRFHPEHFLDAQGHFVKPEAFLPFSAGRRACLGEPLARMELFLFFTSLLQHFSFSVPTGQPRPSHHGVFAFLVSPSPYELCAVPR

For `Cc1ncsc1-c1ccc(C(C)NC(=O)C2CC(O)CN2C(=O)C(c2cc(N3CCC(CN4CCC(OC5CC(Oc6cc(N7C8CCC7CN(c7cc(-c9ccccc9O)nnc7N)C8)ccn6)C5)CC4)CC3)no2)C(C)C)cc1` (stereo not drawn) [A947], the IC50 on CYP2C19 (human, human liver microsomes, pH 7.4, probe S-(+)-mephenytoin) was 3 µM; against CYP2C19, ~3 µM; on CYP2D6 it was > 10 µM; on CYP1A2 it was > 10 µM; with CYP3A4/5 (pH 7.4, probe midazolam, substrate Midazolam), 0.54 µM; in the data set on CYP3A4/5 (pH 7.4, probe testosterone, substrate Testosterone), > 10 µM. Also, the “Body weight (mean)” value in data set [1] (WF-31, 20 mg/kg IV QW, day 0, 3, 7, 10, 13, 14, 21) is 19.00 and 19.30 and 19.20 and 19.50; in data set [1] (WF-31, 40 mg/kg IV QW, day 0, 3, 7, 10, 13, 14, 21), 18.67 and 18.78 and 18.56 and 17.67 and 19.40 and 18.60; in data set [1] (WF-34, 40 mg/kg IV QW, day 0, 4, 8, 11, 15, 18, 22, 25, 29) it was 21.10 and 20.20 and 21.22 and 21.33 and 21.89 and 20.33 and 21.25 and 21.50. Further, the Compound metabolized in data set [2] was < 10%. In data set [3] (4 °C), the “Uptake by primary human hepatocytes at 4 °C” value is “abolished”. Moreover, in data set [3] (co-administration of 1 mM rifamycin SV), the “Temperature-dependent uptake with rifamycin SV” value was “largely inhibited”.

The record behind these values is publication PMC11099041, “Tissue distribution and retention drives efficacy of rapidly clearing VHL-based PROTACs” (Communications Medicine, 2024).
